# In PMC12505664, “Enflicoxib for the long-term management of canine osteoarthritis—External validation of a population pharmacokinetic model in dogs with osteoarthritis” (Frontiers in Veterinary Science, 2025):
# Where “and” joins values, the source holds several entries; their conditions need not be identical. Identical values can stand only once. Like-named read-outs stand apart in the source and are kept apart here.
# Key:
# [1] = Plasma levels of enflicoxib and pyrazol metabolite in the 6-month field clinical study (HPLC-MS/MS); assay type: in vivo, client-owned dogs with OA; settings: for Mean plasma level: oral 8 mg/kg then 4 mg/kg weekly
# Procedure: A prospective, multisite, blinded, randomized, placebo-controlled, parallel-group field study was performed in accordance with Good Clinical Practice standards ([16]). The study aimed to confirm the safety and efficacy of enflicoxib treatment of pain and inflammation associated with naturally occurring canine OA in dogs of any breed and sex treated for 6 months. The protocol was approved by the regulatory authorities of both Portugal and Hungary. Written informed consent was obtained from all dog owners prior to enrolment of their dogs. Dogs remained under the care of their owners at home throughout the study.
# Before enrolment, all dogs underwent a physical examination, and blood and urine samples were taken. After enrollment, dogs were randomized in a predefined enflicoxib:placebo ratio of 3:1. Enflicoxib was dosed orally at weekly intervals, with an initial dose of 8 mg/kg, followed by once-a-week maintenance doses of 4 mg/kg for a total of 26 weeks. Dogs in the enflicoxib group received Daxocox® tablets (Ecuphar/Animalcare group), while dogs in the placebo group received the same formulation without the active ingredient under the same posology (number of tablets and dosing interval). […] No positive control was included due to difficulties in maintaining blinding with products under different posology during the entire follow-up period.
# Two blood samples for popPK analysis were collected from all animals enrolled in the study one on day 44(±2 days)/1.5 months, (similar to the last sample taken in the previous clinical studies), after clinical assessment of pain and lameness and prior to treatment administration and another one at the end of the study on day 189/6 months (±2 days), or individual premature study termination day. Day 189 corresponds to the trough concentration after the 27th weekly administration (PK sample taken at the end of the weekly dosing interval). Meanwhile, day 44 corresponds to a PK sample obtained 2 days after the 7th weekly administration. The veterinary practices had the necessary resources and adequate freezing equipment for the long-term storage of plasma samples. Blood samples were collected into potassium-3-ethylenediaminetetraacetic acid (K3EDTA) labeled tubes, which were immediately centrifuged at ~2,500g for 10 min (at +4 °C whenever possible) to obtain plasma. Once received, plasma was transferred into two labeled propylene tubes (aliquots 1 and 2). Each plasma aliquot was stored frozen at a nominal temperature of −20 (±2) °C until shipment to the Laboratory of analysis Welab Barcelona (Parc Científic de Barcelona, C/Baldiri Reixac 4-12, 08028, Barcelona). The maximum storage time for the samples was 376 days at nominally −20 °C/−80 °C. Considering the long-term stability of enflicoxib and its metabolite in dog plasma samples stored at −20 °C, which spans a minimum of 402 days, the stability of the study samples was guaranteed for the entire duration of the study. Samples were analyzed without information on the treatment allocation (laboratory-blinded study).
# Enflicoxib and pyrazol metabolite plasma levels were measured by a previously fully validated high-performance liquid chromatography (HPLC)-method coupled with tandem mass spectrometry (MS/MS) detection as described in Homedes et al. ([4]).
# [2] = Maximum a posteriori Bayesian (MAPB) estimation of individual PK parameters in dogs with OA; assay type: in vivo
# Excerpt: As a similar PK behavior between populations was concluded, the same popPK model could be used, and a Bayesian approach was used for the determination of individual enflicoxib and the pyrazol metabolite exposure in osteoarthritic animals.
# A maximum a posteriori Bayesian (MAPB) estimation using the post hoc subroutine in NONMEM was used to provide the individual PK parameters in osteoarthritic dogs.
# MAPB estimation applied likelihood maximization in the form of minimizing the objective function (minus 2 log likelihood), to estimate individual PK parameters of each dog with OA. In this analysis, the MAPB estimation incorporated both a priori PK information, that is, the established PK model of enflicoxib and the pyrazol metabolite in healthy Beagle dogs, and a posteriori PK data, which corresponds to PK data from osteoarthritic dogs. The individual PK parameters along with individual predicted PK profiles for each dog treated with enflicoxib were calculated by fitting the animal PK dataset, which includes dosing, sampling times, parent and metabolite levels, and covariate information, to the established population enflicoxib and the pyrazol metabolite PK model in healthy Beagle dogs.
# The maximum a posteriori Bayesian (MAPB) estimation was applied to provide the most likely individual PK profile for each dog with OA, using the “POSTHOC” subroutine and $ESTIMATION command set to MAXEVAL=0 in NONMEM.
# Individual PK parameters and individual PK profiles of enflicoxib and the pyrazol metabolite were estimated for each dog.
# Finally, the Bayesian approach enabled the estimation of the main individual PK parameters of enflicoxib and the pyrazol metabolite. Using these individual PK parameters, predicted profiles for each animal were estimated, allowing the calculation of the derived exposure parameters, such as Cmax, Cmin, AUCτ, and T1/2 in all treated dogs. The distribution and the mean estimates of enflicoxib and the pyrazol metabolite PK parameters at selected time points are depicted in Supplementary Figures S3, S4, respectively.
# Beagle dogs = tested on: Beagle dogs; parameters: method as in PMID 34082759; settings: cited from earlier work
# [3] = parameters: method as in PMID 34160092; settings: cited from earlier work
# [4] = parameters: method as in PMID 34854245; settings: popPK model, cited from earlier work
# [5] = mean across weeks, Bayesian predicted profiles
# [6] = interindividual variability as % CV
# [7] = parent, typical value at 9.9 kg
structure (smiles),measurement,setting,value
NS(=O)(=O)c1ccc(N2N=C(C(F)(F)F)CC2c2ccc(F)cc2F)cc1 (stereo not shown) [Enflicoxib],Mean plasma level,"[1]; day 44 (2 days after 7th weekly administration), N=75",491.7 ng/mL and 492 ng/mL
same,Max plasma level,"[1]; day 44, N=75","1,846.5 ng/mL"
same,Min plasma level,"[1]; day 44, N=75",5.0 ng/mL
same,Probability (%) concentration < 10 ng/mL,"[1]; day 44, N=75",13.3%
same,Probability (%) concentration < LOQ,"[1]; day 44, N=75",9.3%
same,Probability (%) concentration < 10 ng/mL,"[1]; day 44, N=75, listed as enflicoxib",13%
same,Mean plasma level,"[1]; day 93 (premature study termination), N=2",296.8 ng/mL
same,Max plasma level,"[1]; day 93, N=2",356.0 ng/mL
same,Min plasma level,"[1]; day 93, N=2",237.7 ng/mL
same,Probability (%) concentration < 10 ng/mL,"[1]; day 93, N=2",0.0%
same,Probability (%) concentration < LOQ,"[1]; day 93, N=2",0.0%
same,Mean plasma level,"[1]; day 189 (trough after 27th weekly administration), N=65",262.5 ng/mL
same,Mean plasma level,"[1]; day 189 (trough after 27th weekly administration), N=65, listed as enflicoxib",263 ng/mL
same,Max plasma level,"[1]; day 189, N=65","1,846.3 ng/mL"
same,Min plasma level,"[1]; day 189, N=65",5.0 ng/mL
same,Probability (%) concentration < 10 ng/mL,"[1]; day 189, N=65",27.7%
same,Probability (%) concentration < LOQ,"[1]; day 189, N=65",27.7%
same,Probability (%) concentration < 10 ng/mL,"[1]; day 189, N=65, listed as enflicoxib",28%
same,Time-dependent pharmacokinetics or over-accumulation,[2]; 6 months of weekly treatment,no evidence of time-dependent pharmacokinetics or over-accumulation
same,AUCτ,[2]; [5],"3,810 ng/mL·d"
same,Cmin,[2]; [5],~ 185 ng/mL
same,Cmax,"[2]; mean, all weeks of weekly treatment, Bayesian predicted profiles","≈ 1,173 ng/mL"
same,Time to PK steady-state,[2]; weekly treatment,4 weeks
same,Tolerability in overdose study,Beagle dogs; 3 times the recommended dose (12 mg/kg) for 7 months,well-tolerated
same,Tolerability in overdose study,Beagle dogs; 5 times the recommended dose (20 mg/kg) for 3 months,well-tolerated
same,mean terminal elimination half-life (t 1/2),"[3]; Beagle dogs, oral",20 h
same,Effect of food on absorption,[3],food increases absorption
same,IIV of CL2/F (apparent clearance of irreversible biotransformation to pyrazol metabolite),[4]; [6],49%
same,IIV of Lag Time (Tlag),[4]; [6],68%
same,IIV of V/F (apparent volume of distribution in the central compartment),[4]; [6],94%
same,IIV of absorption rate (ka),[4]; [6],101%
same,Residual variability,"[4]; log error model, % CV",34%
same,"Absorption rate (ka), estimate",[4]; parent,0.220 hr – 1
same,"Lag Time (Tlag), estimate",[4]; parent,0.249 h
same,"CL1/F = θ5·(WGT/9.9)^0.75, θ5 estimate (apparent clearance to other elimination pathways)",[4]; [7],0.193 L/h
same,"CL2/F = θ6·(WGT/9.9)^0.75, θ6 estimate (apparent clearance of irreversible biotransformation to pyrazol metabolite)",[4]; [7],0.520 L/h
same,"V/F = θ4·(WGT/9.9)^1.0, θ4 estimate (apparent volume of distribution, central compartment)",[4]; [7],6.59 L
